The target of one data set is T1, Bovine Brain MAO A (Bos taurus, UniProt P21398).
T1 construct: in vitro activity of MAO from bovine brain mitochondria; from tissue; host or cells: bovine brain mitochondria
T1 sequence (P21398 1-527): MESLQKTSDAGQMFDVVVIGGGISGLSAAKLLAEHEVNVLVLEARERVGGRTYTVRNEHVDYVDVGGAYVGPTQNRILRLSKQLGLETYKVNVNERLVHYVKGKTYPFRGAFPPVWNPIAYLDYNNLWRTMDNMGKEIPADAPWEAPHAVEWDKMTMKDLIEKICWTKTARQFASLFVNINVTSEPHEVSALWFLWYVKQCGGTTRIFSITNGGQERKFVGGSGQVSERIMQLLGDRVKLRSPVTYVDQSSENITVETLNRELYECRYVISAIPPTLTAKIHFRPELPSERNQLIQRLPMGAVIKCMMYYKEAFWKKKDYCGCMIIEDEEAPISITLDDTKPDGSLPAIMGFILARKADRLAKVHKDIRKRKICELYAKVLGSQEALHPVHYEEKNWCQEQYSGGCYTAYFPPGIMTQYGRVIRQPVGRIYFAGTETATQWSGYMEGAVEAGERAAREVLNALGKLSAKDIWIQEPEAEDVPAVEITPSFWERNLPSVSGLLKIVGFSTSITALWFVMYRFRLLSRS
Kind of data set: In vitro inhibition of MAO from bovine brain mitochondria, tyramine as substrate (form A). The class given is biochemical. The conditions noted are these: pI50 = -log [I50], molar. An excerpt: (§1) The following table illustrates the structure of particular compounds of the invention (1). It also gives specific pI50 values where pI50 =-log [I50 ] where [I50 ] is the molar concentration of test compound which inhibits 50% of the in vitro activity of MAO from bovine brain mitochondria using tyramine as substrate.

The next data set has as its target T2, Bovine Brain MAO B (Bos taurus, UniProt P56560).
T2 construct: in vitro activity of MAO from bovine brain mitochondria; from tissue; host or cells: bovine brain mitochondria
T2 sequence (P56560 1-520): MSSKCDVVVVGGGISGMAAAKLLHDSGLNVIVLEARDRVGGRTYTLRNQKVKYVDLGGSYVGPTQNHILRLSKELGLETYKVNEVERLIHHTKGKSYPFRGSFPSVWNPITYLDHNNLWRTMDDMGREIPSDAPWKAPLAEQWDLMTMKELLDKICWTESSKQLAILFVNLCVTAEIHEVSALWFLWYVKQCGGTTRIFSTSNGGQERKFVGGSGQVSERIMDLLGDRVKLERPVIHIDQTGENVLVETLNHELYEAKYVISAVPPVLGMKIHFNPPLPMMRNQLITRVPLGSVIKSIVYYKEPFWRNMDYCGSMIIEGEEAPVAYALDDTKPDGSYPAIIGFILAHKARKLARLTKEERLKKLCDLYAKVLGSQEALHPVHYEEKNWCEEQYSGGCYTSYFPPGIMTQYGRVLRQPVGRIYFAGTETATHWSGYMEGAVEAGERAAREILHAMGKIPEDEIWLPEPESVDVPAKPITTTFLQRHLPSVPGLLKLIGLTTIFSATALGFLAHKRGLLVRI
Briefly: In vitro inhibition of MAO from bovine brain mitochondria, tyramine as substrate (form B). It is filed as biochemical. Details: key to Bovine Brain MAO, mark printed in place of a B value (nonselective): ns = nonselective.
Source text: as §1

Another data set has as its system rat uterus. The conditions noted are these: Arch. Int. Pharmacodyn. 1961, 133, 138-158; cited from earlier work.
Data set [1] is described as follows: Secondary effects on the cardiovascular system. The conditions noted are these: in vivo. As to the method: (§2) The secondary effects were studied mainly on the cardiovascular system, and the effects on the arterial pressure, heart rate and rhythm, P-R interval and isolated organ (rabbit aortic rings and isolated atria), were evaluated both after acute and chronic treatments. In the same way, the "cheese effect" was studied by means of the tyramine potentiation.

The nature of a further data set: Potentiation of 5-HT. The class given is in vivo. The settings on record: in vivo.
A short description of data set [2]: Interaction with clonidine-induced hypoactivity. The class given is in vivo. The text has this:
(§3) The action mechanism was studied in acute and chronic treatments on the interaction response with clonidine, salbutamol (Richard, J. Intern. J. Neuroscience, 9:17-19, 1979) and tetrabenazine (Pletscher, A.: An. N.Y. Aca. Sci. 80:1039-1045, 1959), and the response to the potentiation with L-dopa, L-tryptophan, tryptamine (Jalfre, M. et al., Arch. Int. Pharmacodyn, 159:194-221, 1982) and β-phenylethylamine (Ortmann, et al, Psychopharmacol. 84:22-27, 1984).

Data set [3] in a line: "Cheese effect" by tyramine potentiation. The conditions noted are these: in vivo. On the procedure:
as §2

The next data set relates to rat cerebral MAO A and B. Kind of data set: MAO inhibitory activity at the biochemical level (reversibility and selectivity). The text has this: To determine MAO inhibitory activity at the biochemical level the following tests are used:
1. "In vitro inhibition" of rat cerebral MAO A and B giving I50 values for the two forms of the enzyme. Male Wistar rats (200 g) were used. Brains were obtained by decapitation and were homogenized. As substrates of the enzymes ^14 C-5-hydroxytryptamine oxalate 54 mCi/mmol and ^14 C-β-phenylethylamine were used. The residual enzymatic activities were referred to the activities in absence of MAO inhibitor (100%).
2. "Ex vivo inhibition" of rat cerebral MAO A and B after single dosing.
This gives the degree of inhibition in vivo of both forms of the enzyme and variation of this inhibition with time after treatment with a single dose. The compounds were administered intraperitoneally to male Wistar rats (175 g.) at a dose of 5 mg/kg in 1 ml/kg (H2 O). Animals were sacrificed by decapitation 24 h. and 7 days after treatment and brains were removed and homogenized. Enzymatic activities determined in treated animals, were compared with the activities in control animals (100%).
3. "Ex vivo" inhibition of rat cerebral MAO A and B after repeated dosing.
Male Wistar rats (175 g) were used.
The compounds were administered once daily intraperitonally for 7 days at a dose of 0.5 and 1 mg/kg in 1 ml/kg […]. […]

The test system of data set [4] is cerebral β-adrenergic receptors. Kind of data set: Effects of chronic treatment on β receptors. The conditions noted are these: chronic administration in the rat. It is filed as in vivo. As to the method: Effects of chronic treatment on α2 -, β- and 5-HT2 receptors. The test compounds, at a dose of 10 mg/kg/day i.p., were administered for 21 days to Wistar male rats (250±2.4 g). After treatment the animals were killed, brains were dissected and cortices were scraped from the dorsal surface of the […]. ^3 H UK 14304, ^3 H Dihydroalprenalol and ^3 H Ketanserin were used as ligands in the binding studies.

Data set [5] in a line: Behavioural Despair (Porsolt's test). It is filed as in vivo. The settings on record: acute treatment; read-out: Porsolt's test MED, acute. On the procedure: The pharmacological profile was carried out assessing the antidepressant activity with the following tests:
Behavioural Despair (Porsolt et al. Arch. Int. Pharmacodyn; 229:327-336, 1977),

Data set [6] concerns reuptake of noradrenaline. Briefly: Reuptake of noradrenaline in vitro, crude synaptosomal preparation. It is filed as biochemical, rat. On the procedure:
Influence on the reuptake of monoamines "in vitro" was also studied. The effect of the compounds on the reuptake of 5-HT noradrenaline and dopamine was studied using Wistar male rats (350±2.5 g). They were kept under controlled light and temperature conditions and fed "ad libitum" until killed. The animals were killed by decapitation and brains were frozen and stored at -20° C. prior to analysis. Brains were dissected on an ice-filled petri dish. The cortices for 5-HT and noradrenaline assay and striatum (including caudate nucleus, putamen and globus pallidus) for dopamine assay were immediately weighed and homogenized. The standard incubation medium contained: 1.7 μM ^14 C-5-HT); 0.5μM ^3 H-noradrenaline or 1 μM ^3 H-dopamine with 0.1 ml of the crude synaptosomal preparation. All drugs used in the study were dissolved in the incubation medium in a concentration range 10^-4 to 10^-8 M and were preincubated with the crude synaptosomal preparation obtained from the treated brains, for 5 min. at 37° C. or 0° C. before the addition of the labelled substrate.

Data set [7] can be described thus: Potentiation of β-phenylethylamine. The class given is in vivo. The settings on record: in vivo.
Source text: as §3

Data set [8] can be described thus: Interaction with salbutamol-induced hypoactivity. It is filed as in vivo.
Source text: as §3

Molecules are shown by their SMILES.

Usually IC50 stands for the concentration needed to halve the response being measured. Consider `CNCc1cc2cc(OC)ccc2[nH]1` [(t), N-methyl-2-(5-methoxy-indolyl)methylamine], for which the IC50 against Bovine Brain MAO A is not below 100 µM; on Bovine Brain MAO B (pI50 = -log [I50], molar, bovine brain mitochondria, tyramine as substrate), more than 100 µM. In addition, the “Antagonistic activity on the rat uterus” value in the data set on rat uterus was “a weak unspecific antagonistic activity”.
As for `COc1ccc2[nH]c(CN)cc2c1` [(s), 2-(5-methoxy-indolyl)methylamine], in data set [1], the Cardiovascular effects entry is reported as “does not produce any significant cardiovascular effects”. On Bovine Brain MAO A, this compound had an IC50 of 50.1 µM. In addition, the “Activity in test of potentiation of 5-HT” value in “Potentiation of 5-HT” is “inactive”. For the same compound, the “Clonidine-induced hypoactivity, acute” value in data set [2] (acute (10.2 mg/kg)) was “no action”. Moreover, the “Clonidine-induced hypoactivity, chronic” value in [2] (chronic treatment (10.2 mg/kg) during 5 days) was “no action”. Also, the “"Cheese effect"” value in data set [3] is reported as “no "cheese effect"”. In addition, the “Type of MAO inhibition (reversibility, selectivity)” value in the data set with rat cerebral MAO A and B is “reversible and mixed inhibitor of MAO”. Moreover, in [4], the “Number or affinity of cerebral β-adrenergic receptors” value was “does not modify”. In addition, on Bovine Brain MAO B (one pI50 given, no separate A and B values), the “Bovine Brain MAO, mark printed in place of a B value (nonselective)” value was “ns”. Moreover, the minimal effective dose in data set [5] amounted to 25 mg/kg. Besides, in data set [6], the “Effect on the reuptake of noradrenaline” value is “does not affect”. Besides, the “Activity in test of potentiation of β-phenylethylamine” value in [7] was “inactive”. Further, the “Hypoactivity induced by salbutamol, acute” value in data set [8] (acute treatment) is given as “does not do so”. Moreover, the “Hypoactivity induced by salbutamol, chronic” value in data set [8] (chronic treatment (10.2 mg/kg)) is recorded as “counteracts”.
